Reference: patent US8137991B2, “Methods of reducing angiogenesis of age-related macular degeneration (AMD) or choroidal neovascularization by an anti-carboxyetheylpyrrole (CFP) antibody” (The Cleveland Clinic Foundation, priority 2006, dated 2012)

Legend:
[1] = tested on: chick chorioallantoic membrane (CAM); test: Chick chorioallantoic membrane (CAM) angiogenesis assay; assay type: in vivo, chick (white Leghorn embryos); details: VEGF 20 ng, positive control, 48 hours
Protocol: Fertilized 3-day old white Leghorn eggs (CWRU, Squire valley farms) were cracked, and embryos with the yolk intact were placed in 100 mm×20 mm glass bottom Petri dishes. […] CAMs implanted with discs loaded with unmodified dipeptide, HSA, control buffer or with vascular endothelial growth factor (VEGF) were used as negative and positive controls respectively. After 48 hours of incubation, India ink was injected into the vascular system for better visualization of the vessels by a stereomicroscope. Images were captured with a Panasonic CCD camera. Samples were always compared on the same CAM to avoid egg-to-egg variability. For quantitative analysis of vessel density and leakage, CAM images were batch processed using customized macros generated in Image-Pro Plus 5.0 (Media Cybernetics, Silver Spring, Md.). Briefly, a region of interest (ROI) was traced around grafted tissue in each image, each image was then cropped to its ROI, converted to grayscale, and processed using a large spectral filter to enhance the appearance of vasculature whilst omitting presence of larger vessels (determined by filter width). […]
The protein preparations were analyzed for endotoxin and determined to be free of contamination.

[2] = tested on: rat cornea (limbal blood vessels); test: Rat corneal micropocket assay, angiogenic response to implanted pellets; assay type: in vivo, Sprague-Dawley rats; details: pellet 1 mm from limbus, CEP-HSA 1 μg, CEP-dipeptide 37 ng, dipeptide 41 ng
Protocol: Hydron/sucralfate pellets containing unmodified or CEP modified HSA or dipeptide with or without neutralizing antibodies (monoclonal mouse anti-human VEGF, 1.5 μg, R&D systems (MAB293) or monoclonal anti-CEP antibody (Gu, X., et al. (2003) J. Biol. Chem.), 4 μg) were inserted into corneal micropockets (1 mm from the limbus) of Sprague-Dawley rats. Control mouse IgM, 4 μg (eBioscience, cat. #14-4752) and mouse IgG, 1.5 μg (Southern Biotechnology Inc., cat. #0104-01) antibodies were used in control pellets for comparison with anti-CEP and anti-VEGF antibodies respectively. Corneas were examined daily with the aid of a surgical microscope to monitor angiogenic responses to CEP modified peptide or proteins. […] A positive neovascularization response was recorded only if sustained directional in-growth of capillary sprouts and hairpin loops toward the pellet was observed. A negative response was recorded when either no growth is observed or only an occasional sprout or hairpin loop showing no evidence of sustained growth was detected. […] Angiogenic response was analyzed for peak vascular extension and total skeletal (vascular) length using Image-Pro Plus 5.0 (Media Cybernetics, Silver Spring, Md.). […] The resulting image, a single segmented object representing the overall dimensions of the vascular bed, was analyzed for maximum box-width, i.e. extent of vessel penetration. […]

Row | Substance | average skeletal density of CAM vessels [1] | growth of limbal blood vessels towards the pellet [2]
1 | VEGF | ~3.1 | 
2 | acetyl-Gly-Lys-O-methyl ester [dipeptide] |  | did not induce this effect
